Source: ChEMBL document CHEMBL3603800, “Novel methyl substituted 1-(5,6-dihydro-[1,2,4]triazolo[4,3-a]pyrazin-7(8H)-yl)methanones are P2X7 antagonists” (Bioorg Med Chem Lett, 2015)
≈ marks a conversion by molar mass, not a printed value.

Experiments:
[1] = Apparent permeability from apical to basolateral side in human Caco2 cells; assay type: ADME, cell-based; details: Caco-2
[2] = Protein binding in human plasma; assay type: ADME, cell-free; details: read-out: PPB (converted)
[3] = Drug level in plasma of Sprague-Dawley rat at 30 mg/kg, po after 2 hrs; assay type: ADME, organism-based
Rattus norvegicus [4] = test: Ex-vivo P2X7 receptor occupancy in Sprague-Dawley rat brain assessed as inhibition of [3H]A804598 binding at 30 mg/kg, po after 2 hrs by autoradiographic analysis; assay type: functional
[5] = Protein binding in rat plasma; assay type: ADME, cell-free; details: read-out: PPB (converted)
[6] = Solubility in pH 7 solution; assay type: physicochemical
[7] = Protein binding in rat brain; assay type: ADME, tissue-based; details: read-out: PB (converted)
[8] = Apparent permeability from basolateral to apical side in human Caco2 cells; assay type: ADME, cell-based; details: Caco-2
Rattus norvegicus [9] = test: Ex-vivo P2X7 receptor occupancy in Sprague-Dawley rat brain assessed as inhibition of [3H]A804598 binding at 30 mg/kg, po after 0.5 hrs by autoradiographic analysis; assay type: functional
[10] = Drug level in brain of Sprague-Dawley rat at 30 mg/kg, po after 2 hrs; assay type: ADME, organism-based; details: read-out: Drug uptake
[11] = Drug level in plasma of Sprague-Dawley rat at 30 mg/kg, po after 0.5 hrs; assay type: ADME, organism-based
[12] = target: Voltage-gated inwardly rectifying potassium channel KCNH2 (Homo sapiens, UniProt Q12809); test: Displacement of [3H]-astemizole from human ERG channel expressed in HEK293 cells by radioligand competition binding assay; assay type: cell-based
Chain of Voltage-gated inwardly rectifying potassium channel KCNH2 (Q12809 whole entry): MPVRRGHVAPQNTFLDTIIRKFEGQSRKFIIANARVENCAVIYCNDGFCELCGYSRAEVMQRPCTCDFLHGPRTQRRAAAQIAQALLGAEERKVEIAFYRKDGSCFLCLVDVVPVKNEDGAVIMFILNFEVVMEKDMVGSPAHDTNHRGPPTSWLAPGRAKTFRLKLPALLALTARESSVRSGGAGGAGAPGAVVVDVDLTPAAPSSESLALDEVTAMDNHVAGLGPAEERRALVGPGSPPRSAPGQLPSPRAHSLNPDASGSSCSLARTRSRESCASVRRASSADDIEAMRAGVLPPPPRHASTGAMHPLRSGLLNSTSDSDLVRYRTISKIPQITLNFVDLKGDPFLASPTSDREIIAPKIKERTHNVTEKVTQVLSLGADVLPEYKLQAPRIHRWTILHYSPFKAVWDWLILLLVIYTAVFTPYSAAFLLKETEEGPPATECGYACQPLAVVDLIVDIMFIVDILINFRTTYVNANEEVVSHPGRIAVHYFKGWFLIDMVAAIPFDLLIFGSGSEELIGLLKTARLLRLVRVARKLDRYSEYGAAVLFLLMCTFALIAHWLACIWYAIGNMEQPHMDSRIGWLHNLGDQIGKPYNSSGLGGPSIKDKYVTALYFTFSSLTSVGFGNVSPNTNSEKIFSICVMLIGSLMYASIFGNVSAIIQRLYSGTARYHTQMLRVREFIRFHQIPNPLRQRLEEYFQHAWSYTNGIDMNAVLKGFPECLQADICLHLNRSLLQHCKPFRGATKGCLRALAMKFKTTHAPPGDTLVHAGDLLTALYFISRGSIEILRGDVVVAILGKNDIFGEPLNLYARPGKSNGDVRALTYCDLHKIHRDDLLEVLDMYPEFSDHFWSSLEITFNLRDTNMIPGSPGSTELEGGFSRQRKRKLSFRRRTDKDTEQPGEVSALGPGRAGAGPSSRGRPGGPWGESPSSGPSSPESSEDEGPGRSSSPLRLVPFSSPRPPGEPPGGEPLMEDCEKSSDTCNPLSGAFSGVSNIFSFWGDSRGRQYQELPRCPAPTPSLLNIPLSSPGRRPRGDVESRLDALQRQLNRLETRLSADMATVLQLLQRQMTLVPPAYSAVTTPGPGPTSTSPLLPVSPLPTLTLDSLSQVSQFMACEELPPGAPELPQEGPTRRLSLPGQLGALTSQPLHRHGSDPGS

[13] = Drug level in brain of Sprague-Dawley rat at 30 mg/kg, po after 0.5 hrs; assay type: ADME, organism-based; details: read-out: Drug uptake
[14] = Drug level in plasma of Sprague-Dawley rat at 10 mg/kg, sc after 2 hrs
[15] = Drug level in brain of Sprague-Dawley rat at 10 mg/kg, sc after 0.5 hrs; details: read-out: Drug uptake
Rattus norvegicus [16] = test: Ex-vivo P2X7 receptor occupancy in Sprague-Dawley rat brain assessed as inhibition of [3H]A804598 binding at 10 mg/kg, po after 2 hrs by autoradiographic analysis; assay type: functional
[17] = Drug level in plasma of Sprague-Dawley rat at 10 mg/kg, after 0.5 hrs
Rattus norvegicus [18] = test: Ex-vivo P2X7 receptor occupancy in Sprague-Dawley rat brain assessed as inhibition of [3H]A804598 binding at 10 mg/kg, sc after 0.5 hrs by autoradiographic analysis

Papp A→B [1]	fraction unbound [2]	concentration at 2 h [3]	fraction unbound [5]	solubility [6]	fraction unbound [7]	Papp B→A [8]	concentration at 2 h [10]	concentration at 0.5 h [11]	concentration at 0.5 h [13]	concentration at 2 h [14]	concentration at 0.5 h [15]	concentration at 0.5 h [17]	Structure (SMILES)	Occ (Rattus norvegicus [4])	Occ (Rattus norvegicus [9])	IC50 [12]	Occ (Rattus norvegicus [16])	Occ (Rattus norvegicus [18])
	0.51		0.449										C[C@H]1Cn2c(nnc2-c2ccccn2)CN1C(=O)c1cccc(Cl)c1Cl					
	0.254		0.09	350 µM (≈ 142 µg/mL)									C[C@H]1Cn2c(nnc2-c2cc(F)ccn2)CN1C(=O)c1cccc(Cl)c1Cl					
	0.174		0.07	260 µM (≈ 109 µg/mL)						374 ng/mL	3880 ng/mL	1080 ng/mL	COc1ccnc(-c2nnc3n2C[C@H](C)N(C(=O)c2cccc(Cl)c2Cl)C3)c1			> 10 µM	71%	78%

The next lines start with the molecule.

Structure (SMILES)	Papp A→B [1]	fraction unbound [2]	concentration at 2 h [3]	fraction unbound [5]	solubility [6]	fraction unbound [7]	Papp B→A [8]	concentration at 2 h [10]	concentration at 0.5 h [11]	concentration at 0.5 h [13]	concentration at 2 h [14]	concentration at 0.5 h [15]	concentration at 0.5 h [17]	Occ (Rattus norvegicus [4])	Occ (Rattus norvegicus [9])	IC50 [12]	Occ (Rattus norvegicus [16])	Occ (Rattus norvegicus [18])
C[C@@H]1c2nnc(-c3ccccn3)n2CCN1C(=O)c1cccc(Cl)c1Cl	73.4 ×10⁻⁶ cm/s	0.175	942 ng/mL	0.069	> 400 µM	0.11	52.1 ×10⁻⁶ cm/s	2500 ng/mL	2520 ng/mL	5510 ng/mL				56%	68%	> 10 µM		
C[C@H]1Cn2c(nnc2-c2ccc(F)cc2)CN1C(=O)c1cccc(Cl)c1Cl	43.3 ×10⁻⁶ cm/s	0.115	27 ng/mL	0.078	158 µM (≈ 64 µg/mL)	0.09	41.6 ×10⁻⁶ cm/s	142 ng/mL	252 ng/mL	1560 ng/mL				5%	92%			
C[C@H]1Cn2c(nnc2-c2ccc(F)cc2)CN1C(=O)c1cccc(C(F)(F)F)c1Cl	37.3 ×10⁻⁶ cm/s	0.131	2680 ng/mL	0.078		0.07	53.2 ×10⁻⁶ cm/s	12600 ng/mL	1460 ng/mL	6740 ng/mL				73%	89%			
C[C@H]1Cn2c(nnc2-c2cnccn2)CN1C(=O)c1cccc(C(F)(F)F)c1Cl		0.302		0.302														
